Test results taken from US6399610B1, “Transmucosal formulations of levosimendan” (Orion Corporation, priority 1997, dated 2002).

Test: Bioavailability of levosimendan following buccal and intravenous administration in dogs (plasma concentration)
Format: in vivo, beagle dogs
Conditions: for concentration at 10 min / concentration at 20 min / concentration at 40 min / concentration at 60 min / concentration at 90 min / concentration at 120 min: beagle, dog, plasma, 0.02 mg/kg; for concentration at 10 min / concentration at 20 min / concentration at 40 min / concentration at 60 min / concentration at 90 min / concentration at 120 min / Levosimendan concentration: dog plasma; for Levosimendan concentration: 0 min
Procedure: Bioavailability of levosimendan was studied in dogs following buccal and intravenous administration of 0.02 mg/kg of the compound. As experimental animals, three beagle dogs were used. At the time of dosing all animals weighed approximately 10 kg. The dogs were given levosimendan as an intravenous injection or buccal spray at one week intervals. Appropriate concentration (2 mg/ml in 96% ethanol) of the compound was prepared in 10 ml amber glass containers sealed with spray nozzles (50 μl dose, Pfeiffer). The 0.02 mg/kg buccal dose was thus obtained by spraying 2 consecutive 50 μl doses to the buccal cavity of the animals (the dosing volume being thus 0.1 ml/10 kg). The iv dose (0.1 ml/10 kg) was taken from the same bottles.
5 ml of blood was collected from the cephalic vein at the following times after administration: 0, 10, 20, 40, min, 1, 1.5 and 2 hours. Plasma was separated and stored frozen in −20 ° C. until analyzed.
Levosimendan in dog plasma was determined by a non-enantioselective method, in which an automated sample preparation technique combined with high performance liquid chromatography was used. The plasma clean-up was performed by on-line dialysis and the, dialysate was retained on a trace enrichment column. The analyte was then-separated on an analytical column and detected with a UV-detector. The limit of quantitation was 5 ng/ml and the quantitation range 5-500 ng/ml.
The apparatus comprised a Gilson ASTED (Automated Sequential Trace Enrichment System) system (Gilson Medical Electronics, Villiers-le-Bel, France). The dialysis cell was fitted with a Cuprophan cellulose membrane with a molecular cut-off of 15 kDa and the trace enrichment column was a Hypersil ODS (5.8×4.6 mm i.d., 10 μm). The chromatographic system consisted of an LKB Model 2150 pump (Bromma, Sweden) and a Lichrosorb RP-18 (250×4 mm i.d., 10 μm) column (Merck, Darmstadt, Germany). The detector was a Spectra 100 UV-VIS (Spectra-Physics, San Jose, Calif., USA). The wavelength was 380 nm. The mobile phase consisted of a 32 mM monosodium dihydrogen phosphate buffer, methanol, and tetrahydrofuran (45:65:1, v/v/v, pH 3.5). The mobile phase flow rate was 1.0 ml/min.

[1] = other: buccal spray, buccal spray 0.02 mg/kg, Dog 1
[2] = other: buccal spray, buccal spray 0.02 mg/kg, Dog 2
[3] = other: buccal spray, buccal spray 0.02 mg/kg, Dog 3

`CC1CC(=O)NN=C1c1ccc(NN=C(C#N)C#N)cc1` (single isomer, unassigned; (-)) [Levosimendan, (-)-enantiomer of [[4-(1,4,5,6-tetrahydro-4-methyl-6-oxo-3-pyridazinyl)phenyl]hydrazono]propanedinitrile] showed a concentration at 10 min (iv, iv 0.02 mg/kg, Dog 1) of 128 ng/mL, a concentration at 10 min (iv, iv 0.02 mg/kg, Dog 2) of 103 ng/mL and a concentration at 10 min (iv, iv 0.02 mg/kg, Dog 3) of 100 ng/mL. The concentration at 20 min (iv, iv 0.02 mg/kg, Dog 1) was 105 ng/mL, the concentration at 20 min (iv, iv 0.02 mg/kg, Dog 2) was 71 ng/mL and the concentration at 20 min (iv, iv 0.02 mg/kg, Dog 3) was 82 ng/mL. For the same compound, the concentration at 40 min (iv, iv 0.02 mg/kg, Dog 1) was 74 ng/mL, the concentration at 40 min (iv, iv 0.02 mg/kg, Dog 2) was 46 ng/mL and the concentration at 40 min (iv, iv 0.02 mg/kg, Dog 3) was 58 ng/mL. The concentration at 60 min (iv, iv 0.02 mg/kg, Dog 1) was 58 ng/mL, the concentration at 60 min (iv, iv 0.02 mg/kg, Dog 2) was 36 ng/mL and the concentration at 60 min (iv, iv 0.02 mg/kg, Dog 3) was 46 ng/mL. For the same compound, the concentration at 90 min (iv, iv 0.02 mg/kg, Dog 1) was 39 ng/mL, the concentration at 90 min (iv, iv 0.02 mg/kg, Dog 2) was 24 ng/mL and the concentration at 90 min (iv, iv 0.02 mg/kg, Dog 3) was 33 ng/mL. It also gave a concentration at 120 min (iv, iv 0.02 mg/kg, Dog 1) of 28 ng/mL, a concentration at 120 min (iv, iv 0.02 mg/kg, Dog 2) of 15 ng/mL and a concentration at 120 min (iv, iv 0.02 mg/kg, Dog 3) of 25 ng/mL. For the same compound, the concentration at 10 min [1] was 10 ng/mL, the concentration at 10 min [2] was 17 ng/mL and the concentration at 10 min [3] was 7.6 ng/mL. The concentration at 20 min [1] was 24 ng/mL, the concentration at 20 min [2] was 24 ng/mL and the concentration at 20 min [3] was 9.4 ng/mL. It also gave a concentration at 40 min [1] of 32 ng/mL, a concentration at 40 min [2] of 25 ng/mL and a concentration at 40 min [3] of 25 ng/mL. For the same compound, the concentration at 60 min [1] was 26 ng/mL, the concentration at 60 min [2] was 22 ng/mL and the concentration at 60 min [3] was 24 ng/mL. For the same compound, the concentration at 90 min [1] was 18 ng/mL, the concentration at 90 min [2] was 17 ng/mL and the concentration at 90 min [3] was 22 ng/mL. For the same compound, the concentration at 120 min [1] was 13 ng/mL, the concentration at 120 min [2] was 12 ng/mL and the concentration at 120 min [3] was 16 ng/mL. The Levosimendan concentration (buccal spray 0.02 mg/kg, Dog 1) was “< (< means below quantitation range)”, the Levosimendan concentration (buccal spray 0.02 mg/kg, Dog 2) was “< (< means below quantitation range)” and the Levosimendan concentration (buccal spray 0.02 mg/kg, Dog 3) was “< (< means below quantitation range)”. The Levosimendan concentration (iv 0.02 mg/kg, Dog 1) was “< (< means below quantitation range)”, the Levosimendan concentration (iv 0.02 mg/kg, Dog 2) was “< (< means below quantitation range)” and the Levosimendan concentration (iv 0.02 mg/kg, Dog 3) was “< (< means below quantitation range)”. The “Absorption into blood from the buccal spray” value (dogs, buccal spray 0.02 mg/kg) was “rapidly absorbed into blood” and the “Serum levels of levosimendan” value (dogs, buccal spray 0.02 mg/kg) was “steady serum levels”.
